Assay results: PubChem BioAssay (NCI)
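Following 48 hours of exposure in 96-well plates, responses at five concentrations were used to interpolate endpoints linearly. TGI: concentration producing complete growth inhibition.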

Assays:
Assay in all cases: NCI anticancer screen, dose series, 48 h
[1] = test system: NCI-H522 lung
[2] = test system: T-47D breast
[3] = test system: TK-10 renal
[4] = test system: BT-549 breast
[5] = test system: MCF7 breast
[6] = test system: UO-31 renal
[7] = test system: SW-620 colon
[8] = test system: U251 CNS
[9] = test system: UACC-257 melanoma
[10] = test system: ACHN renal
[11] = test system: NCI-H460 lung
[12] = test system: SNB-75 CNS

Row | SMILES | TGI [1] | TGI [2] | TGI [3] | TGI [4] | TGI [5] | TGI [6] | TGI [7] | TGI [8] | TGI [9] | TGI [10] | TGI [11] | TGI [12]
1 | Nc1nc(Cl)cc(Nc2ccc3c(c2)CCC3)n1 | > 100 µM | > 100 µM | > 100 µM | > 100 µM | > 100 µM | > 100 µM | > 100 µM | > 100 µM | > 100 µM | > 100 µM | > 100 µM | 
2 | CN1N=C(c2ccncc2)OC1c1ccc(Cl)c(Cl)c1 (stereo unspecified) | > 100 µM | > 100 µM | > 100 µM |  | > 100 µM | > 100 µM | > 100 µM | > 100 µM | > 100 µM | > 100 µM | > 100 µM | 
3 | OCCOCCO[P+]1(OCCOCCO)n2c3ccc2C(c2ccccc2)=C2C=CC(=N2)C(c2ccccc2)=c2ccc(n21)=C(c1ccccc1)C1=NC(=C3c2ccccc2)C=C1 | 0.448 µM | 2.04 µM | 1.74 µM |  | 1.55 µM |  | 1.31 µM | > 100 µM | 0.124 µM | 1.05 µM | 0.886 µM | 
4 | COC(=O)C1=NN2c3ccccc3CN([C@@H](C)c3ccccc3)C(=O)[C@@H]2C1 | 53.1 µM | 40.1 µM | > 100 µM | 64.9 µM | > 100 µM | 60.7 µM | > 100 µM | > 100 µM | > 100 µM | > 100 µM | > 100 µM | 
5 | Cn1cc(-c2ccc(CCOC3CCCCO3)cc2)c2c(C#N)cccc21 (stereo unspecified) | > 100 µM | > 100 µM | > 100 µM | > 100 µM | > 100 µM | > 100 µM | > 100 µM | > 100 µM | > 100 µM |  | > 100 µM | 
6 | Cc1sc(N=Nc2c(O)[nH]c3ccccc23)nc1-c1ccccc1 |  | 33.1 µM | 59.2 µM | 41.5 µM | 45.1 µM | 29.9 µM | 71.4 µM | 34.3 µM | 47.8 µM | 31.1 µM | 42.2 µM | 47 µM
7 | CNC(Cc1ccccc1)c1cccc(OC)c1O (stereo unspecified) | > 100 µM | 60.4 µM | > 100 µM | > 100 µM |  | > 100 µM | > 100 µM | > 100 µM | 53.9 µM | > 100 µM | > 100 µM | 
8 | CC(C)CCNC(=O)c1ccc(CNC(=O)/C=C/c2ccc(-c3ccccc3[N+](=O)[O-])o2)cc1 |  | 63.5 µM |  |  | > 100 µM | > 100 µM | > 100 µM | > 100 µM | > 100 µM | > 100 µM | > 100 µM | > 100 µM
9 | Cc1ccc2c(c1)NC(=O)C(N=[N+]=[N-])(c1ccccc1)C2=O (stereo unspecified) | 45.6 µM |  | > 100 µM |  |  | 90.7 µM | > 100 µM | 74.6 µM | 79.7 µM | > 100 µM | > 100 µM | > 100 µM
10 | Nc1ncnc2c1ncn2CC(OCP(=O)(O)O)Oc1ccccc1 (stereo unspecified) |  | > 100 µM | > 100 µM |  | > 100 µM | > 100 µM | > 100 µM | > 100 µM | > 100 µM | > 100 µM |  | > 100 µM
11 | c1ccc(C2CC(N3CCOCC3)=Nc3ccccc3N2)cc1 (stereo unspecified) | > 100 µM |  | > 100 µM | > 100 µM |  | > 100 µM | > 100 µM | > 100 µM | > 100 µM | > 100 µM | > 100 µM | 
12 | C(/COc1cccnc1)=N\NC1=NCCN1 | > 100 µM |  | > 100 µM |  |  | > 100 µM | > 100 µM | > 100 µM | > 100 µM | > 100 µM | > 100 µM | > 100 µM
13 | Nc1nc(=O)n(C2OC(CO)C(O)C2O)cc1F (stereo unspecified) | > 100 µM |  |  |  | > 100 µM | > 100 µM | > 100 µM | > 100 µM | > 100 µM |  |  | > 56.4 µM
14 | COc1cccc(/C=N/n2c(-c3ccccc3)n[nH]c2=O)c1 |  | > 100 µM |  | 86.1 µM | > 100 µM | > 100 µM | > 100 µM | > 100 µM | > 100 µM | > 100 µM | > 100 µM | 93.2 µM
15 | O=[N+]([O-])C(=C1Nc2ccccc2N1)C(Cl)=C(Cl)Cl | > 100 µM | 77.7 µM | > 100 µM |  | > 100 µM | > 100 µM | > 100 µM | > 100 µM | > 100 µM | > 100 µM | > 100 µM | 12.4 µM
16 | CCOC(=O)c1sc2nc(SC)nc(Nc3ccc(OC)c(OC)c3)c2c1N | > 100 µM | > 100 µM | 76.4 µM | > 100 µM | > 100 µM | > 100 µM | > 100 µM | > 100 µM | > 100 µM | > 100 µM | > 100 µM | 
17 | CC(=O)OCCn1c(Cc2ccc([N+](=O)[O-])cc2)nn(C(C)=O)c1=O | > 100 µM | > 100 µM | > 100 µM | > 100 µM | > 100 µM | > 100 µM | > 100 µM | > 100 µM | > 100 µM | > 100 µM | > 100 µM | 
18 | Cc1ccc(S(=O)(=O)n2ccn3c(=O)cc(C)nc23)cc1 |  | > 10 µM | > 10 µM | > 10 µM | > 10 µM | > 10 µM | > 10 µM | > 10 µM | > 10 µM | > 10 µM | > 10 µM | > 10 µM
19 | C=CCCCC1(C)CCCCNC1=O (stereo unspecified) |  | > 10 µM | > 10 µM | > 10 µM | > 10 µM | > 10 µM | > 10 µM | > 10 µM | > 10 µM | > 10 µM | > 10 µM | > 10 µM
20 | COc1cc(OC)c(/C=N/N=C(\N)NO)c(OC)c1 | > 100 µM | > 100 µM | > 100 µM |  | > 100 µM | 81.2 µM | > 100 µM | > 100 µM | > 100 µM | > 100 µM | > 100 µM | 64.7 µM
21 | CCCCCCCCCCCCCCCCCCNc1ccn(C2OC(CO)C(OP(=O)(O)OCC3CCC(n4ccc(N)nc4=O)O3)C2O)c(=O)n1 (stereo unspecified) | > 100 µM | > 100 µM | > 100 µM | 89.8 µM |  | 56.7 µM | > 100 µM | > 100 µM | > 100 µM | > 100 µM | > 100 µM | > 100 µM
